Tests used:
PBMCs = experiment: In vitro peptide stimulation of porcine PBMCs, IFN-γ release assay (ELISA); format: cell-based, pig; design: key to T cell response: “x” indicates that a response was found to this given peptide at least once; details: PBMCs of immunized pigs, 2 × 10^5/well, 5 μg/ml peptide, 67.5–70.0 h, IFN-γ ELISA; response = 2-fold increase vs day -2 and at least 25 pg/ml IFN-γ, found at least once; SLA restriction not included
SLA-1*04:01 = experiment: Peptide-MHC class I complex stability, scintillation proximity assay (SPA); design: species or system pig; details: biotinylated recombinant SLA heavy chain, 125I-β2m, excess unlabeled β2m, read every 40 min, number only if t1/2 ≥ 0.5 h, '-' = not stably binding
How it was run: (§1)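 Biotinylated recombinant heavy chains captured on streptavidin scintillation plates with 125I-β2m and peptide; signal read every 40 min under dissociating conditions with excess unlabeled β2m. Signal duration gives complex half-life; ≥ 0.5 h counted as stable binder.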

SLA-2*04:01 = experiment: as above; design: species or system pig; details: biotinylated recombinant SLA heavy chain, 125I-β2m, excess unlabeled β2m, read every 40 min, number only if t1/2 ≥ 0.5 h, '-' = not stably binding
How it was run: as §1

SLA-3*04:01 = experiment: as above; design: species or system pig; details: biotinylated recombinant SLA heavy chain, 125I-β2m, excess unlabeled β2m, read every 40 min, number only if t1/2 ≥ 0.5 h, '-' = not stably binding
How it was run: as §1

Sequence	T cell response (PBMCs)	Binder (t1/2 ≥ 0.5 h): half-life of peptide-SLA-1*04:01 complex (SLA-1*04:01)	Binder (t1/2 ≥ 0.5 h): half-life of peptide-SLA-2*04:01 complex (SLA-2*04:01)	Binder (t1/2 ≥ 0.5 h): half-life of peptide-SLA-3*04:01 complex (SLA-3*04:01)
NMDILFSFP [IDO85, porcine IDO-derived 9-11mer peptide]	x	48 min	–	–
EDYDRLRPLSY [RhoC14, porcine RhoC-derived 9-11mer peptide]	–	- (t1/2 (hours) is listed for each of the stably binding peptides (t1/2 ≥ 0.5 h))	- (t1/2 (hours) is listed for each of the stably binding peptides (t1/2 ≥ 0.5 h))	–
RGTGGTNVIDF [IDO103, porcine IDO-derived 9-11mer peptide]	–	- (t1/2 (hours) is listed for each of the stably binding peptides (t1/2 ≥ 0.5 h))	–	–
ASAIKVIPTLF [IDO8, porcine IDO-derived 9-11mer peptide]	–	- (t1/2 (hours) is listed for each of the stably binding peptides (t1/2 ≥ 0.5 h))	- (t1/2 (hours) is listed for each of the stably binding peptides (t1/2 ≥ 0.5 h))	–
VQAMVSLRNY [IDO129, porcine IDO-derived 9-11mer peptide]	x	72 min	- (t1/2 (hours) is listed for each of the stably binding peptides (t1/2 ≥ 0.5 h))	–
EVDGKQVEL [RhoC21, porcine RhoC-derived 9-11mer peptide]	–	- (t1/2 (hours) is listed for each of the stably binding peptides (t1/2 ≥ 0.5 h))	–	–
PMDNSWKIF [IDO96, porcine IDO-derived 9-11mer peptide]	–	42 min	–	–
GSAAQSSIF [IDO33, porcine IDO-derived 9-11mer peptide]	–	- (t1/2 (hours) is listed for each of the stably binding peptides (t1/2 ≥ 0.5 h))	- (t1/2 (hours) is listed for each of the stably binding peptides (t1/2 ≥ 0.5 h))	–
LWDTAGQEDY [RhoC38, porcine RhoC-derived 9-11mer peptide]	–	- (t1/2 (hours) is listed for each of the stably binding peptides (t1/2 ≥ 0.5 h))	–	–
SIDSPDSLENI [RhoC47, porcine RhoC-derived 9-11mer peptide]	–	- (t1/2 (hours) is listed for each of the stably binding peptides (t1/2 ≥ 0.5 h))	–	–
SIDGLQGHKM [IDO115, porcine IDO-derived 9-11mer peptide]	–	- (t1/2 (hours) is listed for each of the stably binding peptides (t1/2 ≥ 0.5 h))	–	–
SAAQSSIFQCF [IDO122, porcine IDO-derived 9-11mer peptide]	x	1810 min	- (t1/2 (hours) is listed for each of the stably binding peptides (t1/2 ≥ 0.5 h))	–
KGDALLQETY [IDO48, porcine IDO-derived 9-11mer peptide]	x	42 min	- (t1/2 (hours) is listed for each of the stably binding peptides (t1/2 ≥ 0.5 h))	–
DTDVILMCF [RhoC10, porcine RhoC-derived 9-11mer peptide]	–	78 min	–	–
SKDQFPEVY [RhoC48, porcine RhoC-derived 9-11mer peptide]	–	- (t1/2 (hours) is listed for each of the stably binding peptides (t1/2 ≥ 0.5 h))	- (t1/2 (hours) is listed for each of the stably binding peptides (t1/2 ≥ 0.5 h))	–
SLENIPEKWTP [RhoC50, porcine RhoC-derived 9-11mer peptide]	–	- (t1/2 (hours) is listed for each of the stably binding peptides (t1/2 ≥ 0.5 h))	–	–

Sequence	T cell response (PBMCs)	Binder (t1/2 ≥ 0.5 h): half-life of peptide-SLA-1*04:01 complex (SLA-1*04:01)	Binder (t1/2 ≥ 0.5 h): half-life of peptide-SLA-2*04:01 complex (SLA-2*04:01)	Binder (t1/2 ≥ 0.5 h): half-life of peptide-SLA-3*04:01 complex (SLA-3*04:01)
TSSLHKALEVF [IDO123, porcine IDO-derived 9-11mer peptide]	–	- (t1/2 (hours) is listed for each of the stably binding peptides (t1/2 ≥ 0.5 h))	- (t1/2 (hours) is listed for each of the stably binding peptides (t1/2 ≥ 0.5 h))	–
RDMANRISAF [RhoC42, porcine RhoC-derived 9-11mer peptide]	–	- (t1/2 (hours) is listed for each of the stably binding peptides (t1/2 ≥ 0.5 h))	- (t1/2 (hours) is listed for each of the stably binding peptides (t1/2 ≥ 0.5 h))	- (t1/2 (hours) is listed for each of the stably binding peptides (t1/2 ≥ 0.5 h))
RISAFGYLE [RhoC43, porcine RhoC-derived 9-11mer peptide]	–	- (t1/2 (hours) is listed for each of the stably binding peptides (t1/2 ≥ 0.5 h))	–	–
EVDGKQVELAL [RhoC22, porcine RhoC-derived 9-11mer peptide]	–	36 min	–	–
SLENIPEKW [RhoC49, porcine RhoC-derived 9-11mer peptide]	–	- (t1/2 (hours) is listed for each of the stably binding peptides (t1/2 ≥ 0.5 h))	- (t1/2 (hours) is listed for each of the stably binding peptides (t1/2 ≥ 0.5 h))	–
GVPSGSAAGF [IDO34, porcine IDO-derived 9-11mer peptide]	–	- (t1/2 (hours) is listed for each of the stably binding peptides (t1/2 ≥ 0.5 h))	–	–
AIAKNLPEL [IDO2, porcine IDO-derived 9-11mer peptide]	–	- (t1/2 (hours) is listed for each of the stably binding peptides (t1/2 ≥ 0.5 h))	–	–
SLESGPSVREF [IDO116, porcine IDO-derived 9-11mer peptide]	x	48 min	–	–
HIDEDLGFAL [IDO35, porcine IDO-derived 9-11mer peptide]	–	- (t1/2 (hours) is listed for each of the stably binding peptides (t1/2 ≥ 0.5 h))	–	–
YADCVLANW [IDO133, porcine IDO-derived 9-11mer peptide]	x	324 min	102 min	–
LLDITSSLH [IDO67, porcine IDO-derived 9-11mer peptide]	x	42 min	–	–
MVSLRNYHL [IDO83, porcine IDO-derived 9-11mer peptide]	–	- (t1/2 (hours) is listed for each of the stably binding peptides (t1/2 ≥ 0.5 h))	–	–
PLEELPHPY [IDO94, porcine IDO-derived 9-11mer peptide]	–	- (t1/2 (hours) is listed for each of the stably binding peptides (t1/2 ≥ 0.5 h))	–	–
YVDPKLFFNV [IDO135, porcine IDO-derived 9-11mer peptide]	–	- (t1/2 (hours) is listed for each of the stably binding peptides (t1/2 ≥ 0.5 h))	–	–
YVDPKLFFNVL [IDO136, porcine IDO-derived 9-11mer peptide]	–	- (t1/2 (hours) is listed for each of the stably binding peptides (t1/2 ≥ 0.5 h))	–	–
DYDRLRPLSY [RhoC13, porcine RhoC-derived 9-11mer peptide]	–	- (t1/2 (hours) is listed for each of the stably binding peptides (t1/2 ≥ 0.5 h))	–	–
